Positions of bridges follow the written chain, without caps; N, C: chain ends. Non-standard residues stand in square brackets, D forms with d. Residues, ends and D or L forms follow the SMILES beside them. *: point of attachment. Picolinoyl = O=C(c1ccccn1)*; Aib = CC(C)(N)C(=O)O
Experiments:
[1] = test system: TNF-α content in conditioned media of LPS-treated BV2 microglial cells; assay: In vitro TNF-α inhibitory activity in LPS-treated BV2 microglial cells; assay type: cell-based; conditions: compound 45 min before LPS, 24 h incubation, TNF-α in supernatant, read-out: IC50 for reducing LPS-induced TNF-α content by half
Experimental: To measure the efficacy of the biological activity of Compound 1, an in vitro assay was employed to measure TNF-α content in conditioned media of cells treated with lipopolysaccharide (LPS) and different concentrations of Compound 1. 1 mg of Compound 1 peptide compound was added to 3.333 mL of physiological saline to make a 189 μM peptide solution which is sterilized by filtration through a 0.22 μm membrane filter. For treatment of cells, threefold serial dilutions were made, yielding concentrations of 189, 63, 21, 7, 2.3, and 0.76 μM peptide solution.
BV2 cells were recovered and passaged more than 3 times. 1.2×10^6 BV2 microglial cells in good growth state and in the logarithmic growth phase were diluted to […] cells/mL with DMEM medium containing 10% FBS, and 400 μL of cell suspension was inoculated into each well of a 48-well cell culture plate. […]

[2] = test system: TNF-α content in the blood of LPS-treated ICR mice; assay: In vivo TNF-α inhibitory activity in LPS-treated mice; conditions: ICR male mice, IV compound 30 min before IV LPS 5 μg/kg, blood collected 1.5 hours after LPS
Experimental: To measure the efficacy of the biological activity of Compound 1, an in vivo assay was employed to measure TNF-α content in the blood of whole mice treated with lipopolysaccharide (LPS) and different concentrations of Compound 1. 56 ICR male mice, 12-14 g, were acclimated to the animal facility for 7 days and were then randomized into 8 groups with 7 mice/group to receive doses of 0, 0.001, 0.003, 0.01, 0.03, 0.1, 0.3, and 1.0 mg/kg of compound. Each dose group received intravenous (IV) injection of different concentrations of Compound 1 peptide solution at a dosing volume of 10 mL/kg. 30 min later, IV LPS at a dose of 5 μg/kg and at a volume of 10 ml/kg was administered. 1.5 hours after administration of LPS, whole blood was collected from the orbit of ICR mice, centrifuged at 4000 rpm for 10 min, and the supernatant was collected and used for TNF-α content detection from each of the different Compound 1 doses. (TNF-α detection kit, Unitech biological item number: 70-EK282/3-96).

## CC(C)CC1NC(=O)C(CC(C)C)NC(=O)C(CCCNC(=N)N)NC(=O)C(CCCCN)NC(=O)C(C)(C)NC(=O)C(CC(C)C)NC(=O)C(CCCCN)NC(=O)C(CCCNC(=N)N)NC(=O)C(CC(C)C)NC(=O)C(NC(=O)C(CO)NC(=O)C(C)NC(=O)c2ccccn2)CSSCC(C(N)=O)NC1=O (stereo not drawn) [Compound 1, picolinyl-Ala-Ser-cyclo[Cys-LRKL-Aib-KRLL-Cys]-NH2] (Picolinoyl-ASCLRKL[Aib]KRLLC-NH2; disulfide 3-13; configuration not given here)
[1]
  IC50: ~1020 nM
[2]
  ED50 (Effective Dose at which a 50% reduction in blood TNF-α content was found): 0.045 mg/kg

— patent publication US20230210939A1, “CYCLIC PEPTIDE COMPOUNDS AND METHODS OF USE” (priority 2020, published 2023)
